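GI50 = concentration required for 50% inhibition of growth. TGI: total growth inhibition.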
Experiments:
Assay in all cases: inhibition of tumour cell growth, NCI panel, 384-well format
UO-31 renal = test system: UO-31 renal
SK-MEL-28 melanoma = test system: SK-MEL-28 melanoma
MALME-3M melanoma = test system: MALME-3M melanoma
SK-OV-3 ovarian = test system: SK-OV-3 ovarian
CAKI-1 renal = test system: CAKI-1 renal
HCT-15 colon = test system: HCT-15 colon
SN12C renal = test system: SN12C renal
LOX IMVI melanoma = test system: LOX IMVI melanoma
SNB-75 CNS = test system: SNB-75 CNS
HOP-92 NSCLC = test system: HOP-92 NSCLC
SF-268 CNS = test system: SF-268 CNS
A549 NSCLC = test system: A549 NSCLC
SNB-19 CNS = test system: SNB-19 CNS
OVCAR-3 ovarian = test system: OVCAR-3 ovarian
MDA-MB-231 breast = test system: MDA-MB-231 breast
DU-145 prostate = test system: DU-145 prostate
786-0 renal = test system: 786-0 renal
HCT-116 colon = test system: HCT-116 colon
NCI/ADR-RES ovarian = test system: NCI/ADR-RES ovarian
ACHN renal = test system: ACHN renal
SK-MEL-2 melanoma = test system: SK-MEL-2 melanoma
HOP-62 NSCLC = test system: HOP-62 NSCLC
TK-10 renal = test system: TK-10 renal
NCI-H522 lung = test system: NCI-H522 lung
SR leukemia = test system: SR leukemia
NCI-H226 lung = test system: NCI-H226 lung
HT29 colon = test system: HT29 colon
SW-620 colon = test system: SW-620 colon
CCRF-CEM leukemia = test system: CCRF-CEM leukemia
NCI-H460 NSCLC = test system: NCI-H460 NSCLC
OVCAR-4 ovarian = test system: OVCAR-4 ovarian
NCI-H322M lung = test system: NCI-H322M lung
MCF7 breast = test system: MCF7 breast
COLO 205 colon = test system: COLO 205 colon
EKVX NSCLC = test system: EKVX NSCLC
HCC-2998 colon = test system: HCC-2998 colon
SF-539 CNS = test system: SF-539 CNS
KM12 colon = test system: KM12 colon
T-47D breast = test system: T-47D breast
RXF 393 renal = test system: RXF 393 renal
M14 melanoma = test system: M14 melanoma
UACC-62 melanoma = test system: UACC-62 melanoma
OVCAR-5 ovarian = test system: OVCAR-5 ovarian
SK-MEL-5 melanoma = test system: SK-MEL-5 melanoma
OVCAR-8 ovarian = test system: OVCAR-8 ovarian
A498 renal = test system: A498 renal
MOLT-4 leukemia = test system: MOLT-4 leukemia

## CNC(=O)c1ccc(-c2cnc3ncc(Cc4ccc5ncccc5c4)n3n2)cc1F
UO-31 renal
  GI50: > 100 µM
  TGI: > 100 µM
SK-MEL-28 melanoma
  GI50: > 100 µM
  TGI: > 100 µM
MALME-3M melanoma
  GI50: > 100 µM
  TGI: > 100 µM
SK-OV-3 ovarian
  GI50: > 100 µM
  TGI: > 100 µM
CAKI-1 renal
  GI50: > 100 µM
  TGI: > 100 µM
HCT-15 colon
  GI50: > 100 µM
  TGI: > 100 µM
SN12C renal
  GI50: > 77.6 µM
  TGI: > 100 µM
LOX IMVI melanoma
  GI50: > 100 µM
  TGI: > 100 µM
SNB-75 CNS
  GI50: > 61.6 µM
  TGI: > 94.5 µM
HOP-92 NSCLC
  GI50: > 75 µM
  TGI: > 100 µM
SF-268 CNS
  GI50: > 76.9 µM
  TGI: > 100 µM
A549 NSCLC
  GI50: > 100 µM
  TGI: > 100 µM
SNB-19 CNS
  GI50: > 100 µM
  TGI: > 100 µM
OVCAR-3 ovarian
  GI50: > 100 µM
  TGI: > 100 µM
MDA-MB-231 breast
  GI50: > 100 µM
  TGI: > 100 µM
DU-145 prostate
  GI50: > 100 µM
  TGI: > 100 µM
786-0 renal
  GI50: > 87.7 µM
  TGI: > 100 µM
HCT-116 colon
  GI50: > 100 µM
  TGI: > 100 µM
NCI/ADR-RES ovarian
  GI50: > 100 µM
  TGI: > 100 µM
ACHN renal
  GI50: > 100 µM
  TGI: > 100 µM
SK-MEL-2 melanoma
  GI50: > 100 µM
  TGI: > 100 µM
HOP-62 NSCLC
  GI50: > 100 µM
  TGI: > 100 µM
TK-10 renal
  GI50: > 100 µM
  TGI: > 100 µM
NCI-H522 lung
  GI50: > 100 µM
  TGI: > 100 µM
SR leukemia
  GI50: > 50.9 µM
  TGI: > 100 µM
NCI-H226 lung
  GI50: > 100 µM
  TGI: > 100 µM
HT29 colon
  GI50: > 100 µM
  TGI: > 100 µM
SW-620 colon
  GI50: > 100 µM
  TGI: > 100 µM
CCRF-CEM leukemia
  GI50: > 100 µM
  TGI: > 100 µM
NCI-H460 NSCLC
  GI50: > 100 µM
  TGI: > 100 µM
OVCAR-4 ovarian
  GI50: > 100 µM
  TGI: > 100 µM
NCI-H322M lung
  GI50: > 100 µM
  TGI: > 100 µM
MCF7 breast
  GI50: > 100 µM
  TGI: > 100 µM
COLO 205 colon
  GI50: > 100 µM
  TGI: > 100 µM
EKVX NSCLC
  GI50: > 100 µM
  TGI: > 100 µM
HCC-2998 colon
  GI50: > 100 µM
  TGI: > 100 µM
SF-539 CNS
  GI50: > 100 µM
  TGI: > 100 µM
KM12 colon
  GI50: > 77.3 µM
  TGI: > 100 µM
T-47D breast
  GI50: > 100 µM
  TGI: > 100 µM
RXF 393 renal
  GI50: > 43.1 µM
  TGI: > 100 µM
M14 melanoma
  GI50: > 100 µM
  TGI: > 100 µM
UACC-62 melanoma
  GI50: > 100 µM
  TGI: > 100 µM
OVCAR-5 ovarian
  GI50: > 100 µM
  TGI: > 100 µM
SK-MEL-5 melanoma
  GI50: > 100 µM
  TGI: > 100 µM
OVCAR-8 ovarian
  GI50: > 100 µM
  TGI: > 100 µM
A498 renal
  GI50: > 100 µM
  TGI: > 100 µM
MOLT-4 leukemia
  GI50: > 100 µM
  TGI: > 100 µM
